{
  "source": "patent US9738634B2",
  "about": "“Heterocyclic amide compound and herbicide” (SYNGENTA PARTICIPATIONS AG, priority 2013, dated 2017)",
  "format_in_all_cases": "in vivo",
  "key": {"barnyard grass [1]": {"test_system": "barnyard grass", "assay": "Test Example 1: weedkilling efficacy, preemergent weed treatment in the submerged state; A: barnyard grass", "details": "treatment dosage 252 g/ha", "outline": "(§1)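 Alluvial soil in Wagner pots flooded to 4 cm; barnyard grass, bulrush and oval-leafed pondweed seeds sown, then 2.5-leaf rice seedlings transplanted. Same day, emulsified compound diluted in water to set g/ha dosages and applied to water surface; greenhouse 25–30 °C, effect scored by criteria after 3 weeks.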"}, "bulrush [2]": {"test_system": "bulrush", "assay": "Test Example 1: weedkilling efficacy, preemergent weed treatment in the submerged state; B: bulrush", "details": "treatment dosage 252 g/ha", "outline": "as §1"}, "oval-leafed pondweed [3]": {"test_system": "oval-leafed pondweed", "assay": "Test Example 1: weedkilling efficacy, preemergent weed treatment in the submerged state; C: oval-leafed pondweed", "details": "treatment dosage 252 g/ha", "outline": "as §1"}, "transplanted rice": {"test_system": "transplanted rice", "assay": "Test Example 1: preemergent weed treatment in the submerged state, effect on crop; a: transplanted rice", "details": "treatment dosage 252 g/ha", "outline": "as §1"}, "barnyard grass [4]": {"test_system": "barnyard grass", "assay": "Test Example 2: weedkilling efficacy, growth period weed treatment in the submerged state; A: barnyard grass", "details": "treatment dosage 252 g/ha", "outline": "(§2)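 First, alluvial soil in pots is flooded to 4 cm and mixed seed is sown. Next, plants grow in a greenhouse at 25 to 30° C until the 1-2 leaf stage. Then diluted emulsion is applied onto the water surface at the given g/ha rate, and injury is assessed after 3 weeks.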"}, "bulrush [5]": {"test_system": "bulrush", "assay": "Test Example 2: weedkilling efficacy, growth period weed treatment in the submerged state; B: bulrush", "details": "treatment dosage 252 g/ha", "outline": "as §2"}, "oval-leafed pondweed [6]": {"test_system": "oval-leafed pondweed", "assay": "Test Example 2: weedkilling efficacy, growth period weed treatment in the submerged state; C: oval-leafed pondweed", "details": "treatment dosage 252 g/ha", "outline": "as §2"}, "crabgrass [7]": {"test_system": "crabgrass", "assay": "Test Example 3: weedkilling efficacy through soil treatment; D: crabgrass", "details": "treatment dosage 315 g/ha", "outline": "(§3)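 Crop and weed responses were judged three weeks after a uniform surface spray of the water-diluted emulsion at the given g/ha rate. Seeds sat beneath about 1.5 cm of sterilized diluvial soil, and boxes stood in a greenhouse at 25 to 30° C.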"}, "green foxtail [8]": {"test_system": "green foxtail", "assay": "Test Example 3: weedkilling efficacy through soil treatment; E: green foxtail", "details": "treatment dosage 315 g/ha", "outline": "as §3"}, "wild oat": {"test_system": "wild oat", "assay": "Test Example 3: weedkilling efficacy through soil treatment; G: wild oat", "details": "treatment dosage 315 g/ha", "outline": "as §3"}, "black-grass [9]": {"test_system": "black-grass", "assay": "Test Example 3: weedkilling efficacy through soil treatment; H: black-grass", "details": "treatment dosage 315 g/ha", "outline": "as §3"}, "Italian ryegrass [10]": {"test_system": "Italian ryegrass", "assay": "Test Example 3: weedkilling efficacy through soil treatment; I: Italian ryegrass", "details": "treatment dosage 315 g/ha", "outline": "as §3"}, "Indian mallow [11]": {"test_system": "Indian mallow", "assay": "Test Example 3: weedkilling efficacy through soil treatment; K: Indian mallow", "details": "treatment dosage 315 g/ha", "outline": "as §3"}, "redroot pigweed [12]": {"test_system": "redroot pigweed", "assay": "Test Example 3: weedkilling efficacy through soil treatment; L: redroot pigweed", "details": "treatment dosage 315 g/ha", "outline": "as §3"}, "fig-leafed goosefoot [13]": {"test_system": "fig-leafed goosefoot", "assay": "Test Example 3: weedkilling efficacy through soil treatment; M: fig-leafed goosefoot", "details": "treatment dosage 315 g/ha", "outline": "as §3"}, "chickweed [14]": {"test_system": "chickweed", "assay": "Test Example 3: weedkilling efficacy through soil treatment; N: chickweed", "details": "treatment dosage 315 g/ha", "outline": "as §3"}, "birds-eye speedwell [15]": {"test_system": "birds-eye speedwell", "assay": "Test Example 3: weedkilling efficacy through soil treatment; p: birds-eye speedwell", "details": "treatment dosage 315 g/ha", "outline": "as §3"}, "directly sown rice [16]": {"test_system": "directly sown rice", "assay": "Test Example 3: soil treatment, effect on crop; b: directly sown rice", "details": "treatment dosage 315 g/ha", "outline": "as §3"}, "corn [17]": {"test_system": "corn", "assay": "Test Example 3: soil treatment, effect on crop; c: corn", "details": "treatment dosage 315 g/ha", "outline": "as §3"}, "soybean [18]": {"test_system": "soybean", "assay": "Test Example 3: soil treatment, effect on crop; d: soybean", "details": "treatment dosage 315 g/ha", "outline": "as §3"}, "wheat [19]": {"test_system": "wheat", "assay": "Test Example 3: soil treatment, effect on crop; e: wheat", "details": "treatment dosage 315 g/ha", "outline": "as §3"}, "beet [20]": {"test_system": "beet", "assay": "Test Example 3: soil treatment, effect on crop; f: beet", "details": "treatment dosage 315 g/ha", "outline": "as §3"}, "crabgrass [21]": {"test_system": "crabgrass", "assay": "Test Example 4: weedkilling efficacy by foliar treatment; D: crabgrass", "details": "treatment dosage 315 g/ha", "outline": "(§4)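 Seeds are spot-sown into sterilized diluvial soil and covered with about 1.5 cm of soil. After 14 days' greenhouse growth at 25 to 30° C, plants are sprayed on stems and leaves with diluted emulsion at the stated g/ha rate, then scored at 3 weeks.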"}, "green foxtail [22]": {"test_system": "green foxtail", "assay": "Test Example 4: weedkilling efficacy by foliar treatment; E: green foxtail", "details": "treatment dosage 315 g/ha", "outline": "as §4"}, "black-grass [23]": {"test_system": "black-grass", "assay": "Test Example 4: weedkilling efficacy by foliar treatment; H: black-grass", "details": "treatment dosage 315 g/ha", "outline": "as §4"}, "Italian ryegrass [24]": {"test_system": "Italian ryegrass", "assay": "Test Example 4: weedkilling efficacy by foliar treatment; I: Italian ryegrass", "details": "treatment dosage 315 g/ha", "outline": "as §4"}, "Indian mallow [25]": {"test_system": "Indian mallow", "assay": "Test Example 4: weedkilling efficacy by foliar treatment; K: Indian mallow", "details": "treatment dosage 315 g/ha", "outline": "as §4"}, "redroot pigweed [26]": {"test_system": "redroot pigweed", "assay": "Test Example 4: weedkilling efficacy by foliar treatment; L: redroot pigweed", "details": "treatment dosage 315 g/ha", "outline": "as §4"}, "fig-leafed goosefoot [27]": {"test_system": "fig-leafed goosefoot", "assay": "Test Example 4: weedkilling efficacy by foliar treatment; M: fig-leafed goosefoot", "details": "treatment dosage 315 g/ha", "outline": "as §4"}, "chickweed [28]": {"test_system": "chickweed", "assay": "Test Example 4: weedkilling efficacy by foliar treatment; N: chickweed", "details": "treatment dosage 315 g/ha", "outline": "as §4"}, "catchweed": {"test_system": "catchweed", "assay": "Test Example 4: weedkilling efficacy by foliar treatment; O: catchweed", "details": "treatment dosage 315 g/ha", "outline": "as §4"}, "birds-eye speedwell [29]": {"test_system": "birds-eye speedwell", "assay": "Test Example 4: weedkilling efficacy by foliar treatment; p: birds-eye speedwell", "details": "treatment dosage 315 g/ha", "outline": "as §4"}, "directly sown rice [30]": {"test_system": "directly sown rice", "assay": "Test Example 4: foliar treatment, effect on crop; b: directly sown rice", "details": "treatment dosage 315 g/ha", "outline": "as §4"}, "corn [31]": {"test_system": "corn", "assay": "Test Example 4: foliar treatment, effect on crop; c: corn", "details": "treatment dosage 315 g/ha", "outline": "as §4"}, "soybean [32]": {"test_system": "soybean", "assay": "Test Example 4: foliar treatment, effect on crop; d: soybean", "details": "treatment dosage 315 g/ha", "outline": "as §4"}, "wheat [33]": {"test_system": "wheat", "assay": "Test Example 4: foliar treatment, effect on crop; e: wheat", "details": "treatment dosage 315 g/ha", "outline": "as §4"}, "beet [34]": {"test_system": "beet", "assay": "Test Example 4: foliar treatment, effect on crop; f: beet", "details": "treatment dosage 315 g/ha", "outline": "as §4"}},
  "data": [
    {"smiles": "CC1=C(c2ccsc2)C(=O)N(C(C)(C)C(=O)Nc2cccc(F)n2)CO1", "note": "[B-2-04]", "values": [
      {"measurement": "A (barnyard grass) weedkilling efficacy grade", "setting": "barnyard grass [1]", "value": "5 (weed kill ratio 90% or more, (practically complete withering))"},
      {"measurement": "B (bulrush) weedkilling efficacy grade", "setting": "bulrush [2]", "value": "5 (weed kill ratio 90% or more, (practically complete withering))"},
      {"measurement": "C (oval-leafed pondweed) weedkilling efficacy grade", "setting": "oval-leafed pondweed [3]", "value": "5 (weed kill ratio 90% or more, (practically complete withering))"},
      {"measurement": "a (transplanted rice) effect on crop grade", "setting": "transplanted rice", "value": "3 (weed kill ratio 40% or more, less than 70%)"},
      {"measurement": "A (barnyard grass) weedkilling efficacy grade", "setting": "barnyard grass [4]", "value": "5 (weed kill ratio 90% or more, (practically complete withering))"},
      {"measurement": "B (bulrush) weedkilling efficacy grade", "setting": "bulrush [5]", "value": "5 (weed kill ratio 90% or more, (practically complete withering))"},
      {"measurement": "C (oval-leafed pondweed) weedkilling efficacy grade", "setting": "oval-leafed pondweed [6]", "value": "5 (weed kill ratio 90% or more, (practically complete withering))"},
      {"measurement": "D (crabgrass) weedkilling efficacy grade", "setting": "crabgrass [7]", "value": "5 (weed kill ratio 90% or more, (practically complete withering))"},
      {"measurement": "E (green foxtail) weedkilling efficacy grade", "setting": "green foxtail [8]", "value": "5 (weed kill ratio 90% or more, (practically complete withering))"},
      {"measurement": "G (wild oat) weedkilling efficacy grade", "setting": "wild oat", "value": "5 (weed kill ratio 90% or more, (practically complete withering))"},
      {"measurement": "H (black-grass) weedkilling efficacy grade", "setting": "black-grass [9]", "value": "5 (weed kill ratio 90% or more, (practically complete withering))"},
      {"measurement": "I (Italian ryegrass) weedkilling efficacy grade", "setting": "Italian ryegrass [10]", "value": "5 (weed kill ratio 90% or more, (practically complete withering))"},
      {"measurement": "K (Indian mallow) weedkilling efficacy grade", "setting": "Indian mallow [11]", "value": "4 (weed kill ratio 70% or more, less than 90%)"},
      {"measurement": "L (redroot pigweed) weedkilling efficacy grade", "setting": "redroot pigweed [12]", "value": "4 (weed kill ratio 70% or more, less than 90%)"},
      {"measurement": "M (fig-leafed goosefoot) weedkilling efficacy grade", "setting": "fig-leafed goosefoot [13]", "value": "5 (weed kill ratio 90% or more, (practically complete withering))"},
      {"measurement": "N (chickweed) weedkilling efficacy grade", "setting": "chickweed [14]", "value": "5 (weed kill ratio 90% or more, (practically complete withering))"},
      {"measurement": "P (birds-eye speedwell) weedkilling efficacy grade", "setting": "birds-eye speedwell [15]", "value": "5 (weed kill ratio 90% or more, (practically complete withering))"},
      {"measurement": "b (directly sown rice) effect on crop grade", "setting": "directly sown rice [16]", "value": "5 (weed kill ratio 90% or more, (practically complete withering))"},
      {"measurement": "c (corn) effect on crop grade", "setting": "corn [17]", "value": "1 (weed kill ratio 5% or more, less than 20%)"},
      {"measurement": "d (soybean) effect on crop grade", "setting": "soybean [18]", "value": "0 (weed kill ratio 5% or less (practically no effect))"},
      {"measurement": "e (wheat) effect on crop grade", "setting": "wheat [19]", "value": "5 (weed kill ratio 90% or more, (practically complete withering))"},
      {"measurement": "f (beet) effect on crop grade", "setting": "beet [20]", "value": "5 (weed kill ratio 90% or more, (practically complete withering))"},
      {"measurement": "D (crabgrass) weedkilling efficacy grade", "setting": "crabgrass [21]", "value": "5 (weed kill ratio 90% or more, (practically complete withering))"},
      {"measurement": "E (green foxtail) weedkilling efficacy grade", "setting": "green foxtail [22]", "value": "5 (weed kill ratio 90% or more, (practically complete withering))"},
      {"measurement": "H (black-grass) weedkilling efficacy grade", "setting": "black-grass [23]", "value": "5 (weed kill ratio 90% or more, (practically complete withering))"},
      {"measurement": "I (Italian ryegrass) weedkilling efficacy grade", "setting": "Italian ryegrass [24]", "value": "5 (weed kill ratio 90% or more, (practically complete withering))"},
      {"measurement": "K (Indian mallow) weedkilling efficacy grade", "setting": "Indian mallow [25]", "value": "5 (weed kill ratio 90% or more, (practically complete withering))"},
      {"measurement": "L (redroot pigweed) weedkilling efficacy grade", "setting": "redroot pigweed [26]", "value": "5 (weed kill ratio 90% or more, (practically complete withering))"},
      {"measurement": "M (fig-leafed goosefoot) weedkilling efficacy grade", "setting": "fig-leafed goosefoot [27]", "value": "5 (weed kill ratio 90% or more, (practically complete withering))"},
      {"measurement": "N (chickweed) weedkilling efficacy grade", "setting": "chickweed [28]", "value": "4 (weed kill ratio 70% or more, less than 90%)"},
      {"measurement": "O (catchweed) weedkilling efficacy grade", "setting": "catchweed", "value": "4 (weed kill ratio 70% or more, less than 90%)"},
      {"measurement": "P (birds-eye speedwell) weedkilling efficacy grade", "setting": "birds-eye speedwell [29]", "value": "5 (weed kill ratio 90% or more, (practically complete withering))"},
      {"measurement": "b (directly sown rice) effect on crop grade", "setting": "directly sown rice [30]", "value": "5 (weed kill ratio 90% or more, (practically complete withering))"},
      {"measurement": "c (corn) effect on crop grade", "setting": "corn [31]", "value": "3 (weed kill ratio 40% or more, less than 70%)"},
      {"measurement": "d (soybean) effect on crop grade", "setting": "soybean [32]", "value": "4 (weed kill ratio 70% or more, less than 90%)"},
      {"measurement": "e (wheat) effect on crop grade", "setting": "wheat [33]", "value": "5 (weed kill ratio 90% or more, (practically complete withering))"},
      {"measurement": "f (beet) effect on crop grade", "setting": "beet [34]", "value": "5 (weed kill ratio 90% or more, (practically complete withering))"}
    ]}
  ]
}
